The record followed here is ChEMBL document CHEMBL1201862, “PubChem BioAssay data set” (2004).

Among the test systems are CAKI-1; CCRF-CEM; COLO 205; DU-145; K562; KM12; M14; MCF7; MOLT-4; OVCAR-4; OVCAR-5; RPMI-8226; SF-295; SF-539; SK-MEL-28; SNB-19; SNB-75; SR; UACC-257.
Assay in all cases: inhibition of tumour cell growth, NCI panel, 48 h

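96-well plates; 48 h exposure; 5 concentrations. Endpoints by linear interpolation between flanking doses. Not reached: highest tested concentration assigned. GI50 marks 50% less growth.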 Activity calls are given as the source filed them. No stated cut-off is given here; in the data, active = GI50 up to about 1.1 µM and inactive = higher. Bounds are passed on as bounds.

With `C=C(C)C1CC=C(C)C(=O)C1` (stereo not drawn) [CARVONE], the GI50 in the assay on CAKI-1, in the assay with CCRF-CEM, in the assay on COLO 205, in the assay with DU-145, in the assay with K562 and with KM12 was > 100 µM (inactive) in each case. For the same compound, the GI50 in the assay with M14, in the assay on MCF7, in the assay on MOLT-4, in the assay on OVCAR-4, with OVCAR-5 and in the assay with RPMI-8226 was > 100 µM (inactive) in each case. Further, the GI50 in the assay on SF-295, in the assay with SF-539, in the assay with SK-MEL-28, with SNB-19, with SNB-75 and in the assay with SR was > 100 µM (inactive) throughout. In the assay on UACC-257, the GI50 is > 100 µM (inactive).
As for `CCC1(O)CC(OC2CC(N(C)C)C(OC3CC(O)C(OC4OC(C)C(=O)C=C4N)C(C)O3)C(C)O2)c2c(cc3c(c2O)C(=O)c2c(O)cccc2C3=O)C1C(=O)OC` (stereo not drawn), the GI50 with CAKI-1 is 0.00604 µM (active); with CCRF-CEM, 0.00169 µM (active); in the assay with COLO 205, 0.00429 µM (active); with DU-145 it was 0.00637 µM (active); in the assay on K562, < 0.001 µM (active); with KM12 it was 0.00525 µM (active). The GI50 in the assay with M14 was 0.0345 µM (active); in the assay on MCF7, 0.01 µM (active); in the assay with MOLT-4, 0.0015 µM (active); in the assay with OVCAR-4 it was 0.01 µM (active); in the assay with OVCAR-5, 0.0678 µM (active); in the assay with RPMI-8226, 0.00153 µM (active). In addition, the GI50 was 0.0016 µM (active) with SF-295; 0.0501 µM (active) in the assay on SF-539; 0.0272 µM (active) in the assay with SK-MEL-28; 0.0282 µM (active) with SNB-19; 0.0402 µM (active) with SNB-75; 0.00625 µM (active) in the assay with SR. In addition, in the assay on UACC-257, the GI50 was 0.0211 µM (active).
As to `COc1ccc(N2C(=O)/C(=C/c3ccc(N(CCC#N)CCC#N)cc3)N=C2c2ccccc2)c(OC)c1`, the GI50 with CAKI-1 is > 100 µM (inactive); in the assay on CCRF-CEM, 21.9 µM (inactive); with COLO 205, > 100 µM (inactive); with DU-145, > 100 µM (inactive); with K562 it was 18.1 µM (inactive); in the assay on KM12, 35.5 µM (inactive). For the same compound, the GI50 is > 100 µM (inactive) with M14; 61.7 µM (inactive) in the assay with MCF7; 28.2 µM (inactive) in the assay with MOLT-4; > 100 µM (inactive) in the assay with OVCAR-4; > 100 µM (inactive) in the assay with OVCAR-5; 29 µM (inactive) in the assay on RPMI-8226. Further, the GI50 in the assay with SF-295 is > 100 µM (inactive); in the assay with SF-539, 40.4 µM (inactive); in the assay with SK-MEL-28 it was > 100 µM (inactive); in the assay on SNB-19, > 100 µM (inactive); in the assay with SNB-75 it was 89.5 µM (inactive); with SR, 22.4 µM (inactive). In addition, the GI50 with UACC-257 was > 100 µM (inactive).
With `CCN(CC)c1nc(=O)c(C(=O)C(C)(C)C)c(C(C)(C)C)o1`, the GI50 in the assay with CAKI-1, with CCRF-CEM, with COLO 205, with DU-145, in the assay on K562 and in the assay on KM12 was > 100 µM (inactive) throughout. Further, the GI50 with M14, with MCF7, in the assay on MOLT-4, in the assay with OVCAR-4, in the assay with OVCAR-5 and in the assay on RPMI-8226 was > 100 µM (inactive) in each case. The GI50 was > 100 µM (inactive) in the assay with SF-295; > 100 µM (inactive) in the assay on SF-539; > 100 µM (inactive) in the assay with SK-MEL-28; 98.4 µM (inactive) with SNB-19; > 100 µM (inactive) in the assay on SNB-75; > 100 µM (inactive) in the assay with SR. For the same compound, the GI50 in the assay with UACC-257 was > 100 µM (inactive).
`CC[C@@H](/C=C\CCC1(C[C@H](O)CCC=C(C)C)OCCO1)O[Si](C(C)C)(C(C)C)C(C)C`: the GI50 with CAKI-1 was 28.6 µM (inactive); in the assay on CCRF-CEM it was 29 µM (inactive); in the assay on COLO 205, 19.8 µM (inactive); in the assay with DU-145, 30 µM (inactive); with K562 it was 20 µM (inactive); with KM12, 37.1 µM (inactive). In addition, the GI50 in the assay with M14 is 26.5 µM (inactive); in the assay with MCF7, 17.3 µM (inactive); in the assay with MOLT-4, 19.3 µM (inactive); in the assay on OVCAR-4, 50.8 µM (inactive); in the assay with OVCAR-5 it was 22 µM (inactive); in the assay with RPMI-8226, 18.4 µM (inactive). The GI50 with SF-295 is 20.2 µM (inactive); in the assay on SF-539, 18.5 µM (inactive); in the assay on SK-MEL-28, 26.7 µM (inactive); in the assay on SNB-19 it was 18.9 µM (inactive); in the assay with SNB-75, 29.5 µM (inactive); in the assay with SR, 21.2 µM (inactive). The GI50 in the assay with UACC-257 is 22.5 µM (inactive).
Turning to `NS(=O)(=O)c1ccc(/N=N/c2cccnc2O)cc1`, the GI50 in the assay on CAKI-1 was > 100 µM (inactive); in the assay on CCRF-CEM, 20.7 µM (inactive); with COLO 205, > 100 µM (inactive); in the assay with DU-145, > 100 µM (inactive); in the assay with K562 it was > 100 µM (inactive); in the assay with KM12, > 100 µM (inactive). Further, the GI50 in the assay on M14, with MCF7, in the assay on MOLT-4, in the assay on OVCAR-4, in the assay on OVCAR-5 and in the assay on RPMI-8226 was > 100 µM (inactive) throughout. Besides, the GI50 with SF-295, with SF-539, with SK-MEL-28, in the assay on SNB-19, in the assay with SNB-75 and in the assay with SR was > 100 µM (inactive) in each case. For the same compound, the GI50 with UACC-257 is > 100 µM (inactive).
In the case of `COc1cc2c(cc1OC)-c1[nH]c3ccc([N+](=O)[O-])cc3c1CC(=O)N2`, the GI50 in the assay with CAKI-1 is 2.89 µM (inactive); in the assay with CCRF-CEM, 0.975 µM (active); in the assay on COLO 205, 0.325 µM (active); in the assay on DU-145, 1.68 µM (inactive); with K562 it was 1.3 µM (inactive); in the assay on KM12 it was 0.867 µM (active). The GI50 was 5.38 µM (inactive) in the assay with M14; 3.59 µM (inactive) with MCF7; 1.56 µM (inactive) in the assay on MOLT-4; 3.19 µM (inactive) in the assay on OVCAR-4; 3.78 µM (inactive) in the assay with OVCAR-5; 3.6 µM (inactive) in the assay on RPMI-8226. Moreover, the GI50 was 3.53 µM (inactive) in the assay on SF-295; 0.316 µM (active) in the assay on SF-539; 6.19 µM (inactive) in the assay on SK-MEL-28; 6.84 µM (inactive) in the assay on SNB-19; 2.43 µM (inactive) with SNB-75; 0.278 µM (active) in the assay on SR. Besides, the GI50 with UACC-257 is 8.49 µM (inactive).
